US10407425B2, “Indazole inhibitors of the Wnt signal pathway and therapeutic uses thereof” (Samumed, LLC, priority 2012, dated 2019)

Tested on: Wnt activity
Assay: Wnt activity reporter assay (SP5 promoter firefly luciferase in SW480 cells)
Format: cell-based
Settings: Homo sapiens; SW480 cells bearing SP5 promoter luciferase reporter; 24 h after compound addition; read-out: Wnt inhibition
Source text: The above synthesized compounds were screened using the assay procedure for Wnt activity described below.
Reporter cell lines can be generated by stably transducing cells of cancer cell lines (e.g., colon cancer) with a lentiviral construct that include a wnt-responsive promoter driving expression of the firefly luciferase gene.
Lentiviral constructs can be made in which the SP5 promoter, a promoter having eight TCF/LEF binding sites derived from the SP5 promoter, is linked upstream of the firefly luciferase gene. The lentiviral constructs can also include a hygromycin resistance gene as a selectable marker. The SP5 promoter construct can be used to transduce SW480 cells, a colon cancer cell line having a mutated APC gene that generates a truncated APC protein, leading to de-regulated accumulation of β-catenin.
Cultured SW480 cells bearing a reporter construct can be distributed at approximately 10,000 cells per well into 384 well multiwell plates. Compounds from a small molecule compound library can then be added to the wells in half-log dilutions using a three micromolar top concentration. A series of control wells for each cell type receive only buffer and compound solvent. Twenty-four hours after the addition of compound, reporter activity for luciferases can be assayed, for example, by addition of the BrightGlo luminescence reagent (Promega) and the Victor3 plate reader (Perkin Elmer). Readings can be normalized to DMSO only treated cells, and normalized activities can then be used in the IC50 calculations.

| IC50 [nM] | Compound |
| --- | --- |
| 140 to 150 | CC(C)CC(=O)Nc1cncc(-c2ccc3[nH]nc(-c4nc5c(N6CCN(C)CC6)cncc5[nH]4)c3c2)c1 [Compound 1, 3-methyl-N-(5-(3-(7-(4-methylpiperazin-1-yl)-3H-imidazo[4,5-c]pyridin-2-yl)-1H-indazol-5-yl)pyridin-3-yl)butanamide] |
| 125 to 146 | CC(C)C(=O)Nc1cncc(-c2ccc3[nH]nc(-c4nc5c(N6CCN(C)CC6)cncc5[nH]4)c3c2)c1 [Compound 2, N-(5-(3-(7-(4-methylpiperazin-1-yl)-3H-imidazo[4,5-c]pyridin-2-yl)-1H-indazol-5-yl)pyridin-3-yl)isobutyramide] |
| 83 to 179 | CN(C)Cc1cncc(-c2ccc3[nH]nc(-c4nc5c(N6CCN(C)CC6)cncc5[nH]4)c3c2)c1 [Compound 3, N,N-dimethyl-1-(5-(3-(7-(4-methylpiperazin-1-yl)-3H-imidazo[4,5-c]pyridin-2-yl)-1H-indazol-5-yl)pyridin-3-yl)methanamine] |
| 13 to 40 | CN1CCN(c2cncc3[nH]c(-c4n[nH]c5ccc(-c6cccnc6)cc45)nc23)CC1 [Compound 4, 7-(4-methylpiperazin-1-yl)-2-(5-(pyridin-3-yl)-1H-indazol-3-yl)-3H-imidazo[4,5-c]pyridine] |
| 67 to 98 | CN1CCN(c2cncc3[nH]c(-c4n[nH]c5ccc(-c6cncc(N7CCOCC7)c6)cc45)nc23)CC1 [Compound 5, 4-(5-(3-(7-(4-methylpiperazin-1-yl)-3H-imidazo[4,5-c]pyridin-2-yl)-1H-indazol-5-yl)pyridin-3-yl)morpholine] |
| 10 to 13 | c1cncc(-c2ccc3[nH]nc(-c4nc5c(N6CCOCC6)cncc5[nH]4)c3c2)c1 [Compound 6, 4-(2-(5-(pyridin-3-yl)-1H-indazol-3-yl)-3H-imidazo[4,5-c]pyridin-7-yl)morpholine] |
| 214 to 463 | CN1CCN(c2cncc(-c3ccc4[nH]nc(-c5nc6ccncc6[nH]5)c4c3)c2)CC1 [Compound 7, 2-(5-(5-(4-methylpiperazin-1-yl)pyridin-3-yl)-1H-indazol-3-yl)-3H-imidazo[4,5-c]pyridine] |
| 400 to 630 | CC(C)C(=O)Nc1cncc(-c2ccc3[nH]nc(-c4nc5ccncc5[nH]4)c3c2)c1 [Compound 9, N-(5-(3-(3H-imidazo[4,5-c]pyridin-2-yl)-1H-indazol-5-yl)pyridin-3-yl)isobutyramide] |
| 3.4 to 9 | CC(C)CC(=O)Nc1cncc(-c2ccc3[nH]nc(-c4nc5c(-c6cccc(F)c6)cncc5[nH]4)c3c2)c1 [Compound 10, N-(5-(3-(7-(3-fluorophenyl)-3H-imidazo[4,5-c]pyridin-2-yl)-1H-indazol-5-yl)pyridin-3-yl)-3-methylbutanamide] |
| 3.5 to 65 | CC(C)CC(=O)Nc1cncc(-c2ccc3[nH]nc(-c4nc5c(-c6ccccc6F)cncc5[nH]4)c3c2)c1 [Compound 11, N-(5-(3-(7-(2-fluorophenyl)-3H-imidazo[4,5-c]pyridin-2-yl)-1H-indazol-5-yl)pyridin-3-yl)-3-methylbutanamide] |
| 6 to 8 | CC(C)CC(=O)Nc1cncc(-c2ccc3[nH]nc(-c4nc5c(-c6ccc(F)cc6)cncc5[nH]4)c3c2)c1 [Compound 12, N-(5-(3-(7-(4-fluorophenyl)-3H-imidazo[4,5-c]pyridin-2-yl)-1H-indazol-5-yl)pyridin-3-yl)-3-methylbutanamide] |
| 10 to 25 | Fc1cccc(-c2cncc3[nH]c(-c4n[nH]c5ccc(-c6cccnc6)cc45)nc23)c1 [Compound 15, 7-(3-fluorophenyl)-2-(5-(pyridin-3-yl)-1H-indazol-3-yl)-3H-imidazo[4,5-c]pyridine] |
| 164 to 200 | CN(C)Cc1cncc(-c2ccc3[nH]nc(-c4nc5c(-c6cncc(F)c6)cncc5[nH]4)c3c2)c1 [Compound 16, 1-(5-(3-(7-(5-fluoropyridin-3-yl)-3H-imidazo[4,5-c]pyridin-2-yl)-1H-indazol-5-yl)pyridin-3-yl)-N,N-dimethylmethanamine] |
| 1.4 to 1.8 | CCC(=O)Nc1cncc(-c2ccc3[nH]nc(-c4nc5c(-c6cncc(F)c6)cncc5[nH]4)c3c2)c1 [Compound 20, N-(5-(3-(7-(5-fluoropyridin-3-yl)-3H-imidazo[4,5-c]pyridin-2-yl)-1H-indazol-5-yl)pyridin-3-yl)propionamide] |
| 66 | CCC(=O)Nc1cncc(-c2ccc3[nH]nc(-c4nc5c(-c6cccc(F)c6)cncc5[nH]4)c3c2)c1 [Compound 24, N-(5-(3-(7-(3-Fluorophenyl)-3H-imidazo[4,5-c]pyridin-2-yl)-1H-indazol-5-yl)pyridin-3-yl)propionamide] |
| 5 | CC(C)C(=O)Nc1cncc(-c2ccc3[nH]nc(-c4nc5c(-c6ccccc6F)cncc5[nH]4)c3c2)c1 [Compound 31, N-(5-(3-(7-(2-Fluorophenyl)-3H-imidazo[4,5-c]pyridin-2-yl)-1H-indazol-5-yl)pyridin-3-yl)isobutyramide] |

| IC50 [nM] | Compound |
| --- | --- |
| 23 | O=C(Cc1ccccc1)Nc1cncc(-c2ccc3[nH]nc(-c4nc5c(-c6cccc(F)c6)cncc5[nH]4)c3c2)c1 [Compound 86, N-(5-(3-(7-(3-Fluorophenyl)-3H-imidazo[4,5-c]pyridin-2-yl)-1H-indazol-5-yl)pyridin-3-yl)-2-phenylacetamide] |
| > 10000 | CN(C)Cc1cncc(-c2ccc3[nH]nc(-c4nc5c(-c6cccc(F)c6)cncc5[nH]4)c3c2)c1 [Compound 89, 1-(5-(3-(7-(3-Fluorophenyl)-3H-imidazo[4,5-c]pyridin-2-yl)-1H-indazol-5-yl)pyridin-3-yl)-N,N-dimethylmethanamine] |
| 12 | CC(C)(C)CC(=O)Nc1cncc(-c2ccc3[nH]nc(-c4nc5c(-c6cccc(F)c6)cncc5[nH]4)c3c2)c1 [Compound 90, N-(5-(3-(7-(3-Fluorophenyl)-3H-imidazo[4,5-c]pyridin-2-yl)-1H-indazol-5-yl)pyridin-3-yl)-3,3-dimethylbutanamide] |
| 2 | O=C(Nc1cncc(-c2ccc3[nH]nc(-c4nc5c(-c6cccc(F)c6)cncc5[nH]4)c3c2)c1)C1CC1 [Compound 91, N-(5-(3-(7-(3-Fluorophenyl)-3H-imidazo[4,5-c]pyridin-2-yl)-1H-indazol-5-yl)pyridin-3-yl)cyclopropanecarboxamide] |
| 11 | O=C(Nc1cncc(-c2ccc3[nH]nc(-c4nc5c(-c6cccc(F)c6)cncc5[nH]4)c3c2)c1)C1CCCCC1 [Compound 94, N-(5-(3-(7-(3-Fluorophenyl)-3H-imidazo[4,5-c]pyridin-2-yl)-1H-indazol-5-yl)pyridin-3-yl)cyclohexanecarboxamide] |
| 1 | Nc1cncc(-c2ccc3[nH]nc(-c4nc5c(-c6ccc(F)cc6)cncc5[nH]4)c3c2)c1 [Compound 97, 5-(3-(7-(4-Fluorophenyl)-3H-imidazo[4,5-c]pyridin-2-yl)-1H-indazol-5-yl)pyridin-3-amine] |
| > 5000 | Cc1ccncc1-c1ccc2[nH]nc(-c3nc4c(-c5ccc(F)cc5)cncc4[nH]3)c2c1 [Compound 99, 7-(4-Fluorophenyl)-2-(5-(4-methylpyridin-3-yl)-1H-indazol-3-yl)-3H-imidazo[4,5-c]pyridine] |
| 4 | CC(C)(C)C(=O)Nc1cncc(-c2ccc3[nH]nc(-c4nc5c(-c6ccc(F)cc6)cncc5[nH]4)c3c2)c1 [Compound 102, N-(5-(3-(7-(4-Fluorophenyl)-3H-imidazo[4,5-c]pyridin-2-yl)-1H-indazol-5-yl)pyridin-3-yl)pivalamide] |
| 7 | O=C(Nc1cncc(-c2ccc3[nH]nc(-c4nc5c(-c6ccc(F)cc6)cncc5[nH]4)c3c2)c1)c1ccccc1 [Compound 104, N-(5-(3-(7-(4-Fluorophenyl)-3H-imidazo[4,5-c]pyridin-2-yl)-1H-indazol-5-yl)pyridin-3-yl)benzamide] |
| 52 | Fc1ccc(-c2cncc3[nH]c(-c4n[nH]c5ccc(-c6cncc(CN7CCCC7)c6)cc45)nc23)cc1 [Compound 107, 7-(4-Fluorophenyl)-2-(5-(5-(pyrrolidin-1-ylmethyl)pyridin-3-yl)-1H-indazol-3-yl)-3H-imidazo[4,5-c]pyridine] |
| 6 | O=C(Nc1cncc(-c2ccc3[nH]nc(-c4nc5c(-c6ccc(F)cc6)cncc5[nH]4)c3c2)c1)C1CCC1 [Compound 111, N-(5-(3-(7-(4-Fluorophenyl)-3H-imidazo[4,5-c]pyridin-2-yl)-1H-indazol-5-yl)pyridin-3-yl)cyclobutanecarboxamide] |
| 1 | CC(C)Nc1cncc(-c2ccc3[nH]nc(-c4nc5c(-c6ccccc6F)cncc5[nH]4)c3c2)c1 [Compound 124, 5-(3-(7-(2-Fluorophenyl)-3H-imidazo[4,5-c]pyridin-2-yl)-1H-indazol-5-yl)-N-isopropylpyridin-3-amine] |
| 14 | Fc1ccccc1-c1cncc2[nH]c(-c3n[nH]c4ccc(-c5cncc(CN6CCCCC6)c5)cc34)nc12 [Compound 127, 7-(2-Fluorophenyl)-2-(5-(5-(piperidin-1-ylmethyl)pyridin-3-yl)-1H-indazol-3-yl)-3H-imidazo[4,5-c]pyridine] |
| 35 | c1cncc(-c2ccc3[nH]nc(-c4nc5c(-c6cccnc6)cncc5[nH]4)c3c2)c1 [Compound 136, 7-(Pyridin-3-yl)-2-(5-(pyridin-3-yl)-1H-indazol-3-yl)-3H-imidazo[4,5-c]pyridine] |
| 373 | Cc1ccncc1-c1ccc2[nH]nc(-c3nc4c(-c5ccncc5)cncc4[nH]3)c2c1 [Compound 154, 2-(5-(4-Methylpyridin-3-yl)-1H-indazol-3-yl)-7-(pyridin-4-yl)-3H-imidazo[4,5-c]pyridine] |
